Seven compounds from US12240844B2 (Voronoi, Inc., priority 2019, dated 2025) can be followed below.

For one assay, the target named is T1, human GST-CLK1 (129-end) (Homo sapiens, UniProt P49759).
T1 construct: purified human GST-CLK1 (129-end, Signalchem) enzyme; GST; purchased Signalchem
In words: GST-CLK1 enzyme inhibition, ADP-Glo kinase assay. Type of assay: biochemical. As to conditions: ATP 10 uM. An outline of the steps: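 GST-CLK1 (129-end, 3 ng) reacted with 10 uM ATP and substrate in 40 mM Tris-HCl pH 7.4, 20 mM MgCl2, 0.5 mg/mL BSA, 50 uM DTT, 1 h at 25° C. ADP-Glo luminescence normalised to solvent control; IC50 from triplicate data.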

Assay [1] addresses T2, LRRK2, LRRK2 (G2019S), DYRK1, CLK1 and TTK kinases (Homo sapiens, UniProt Q13627).
T2 construct: other: DYRK1; Kinase HotSpot service (Reaction Biology), ATP 10 uM
In words: Enzyme IC50 by Kinase HotSpot service (Reaction Biology Corporation), values marked with *. The format is biochemical. The following applies: DYRK1, ATP 10 uM. The procedure:
Meanwhile, the enzyme IC50 measurement for some compounds was performed using Kinase HotSpot service (Reaction Biology Corporation); during the test, the ATP concentration was 10 uM, where all were conducted under the same condition; and the concentration of the compound was measured by giving a 3-fold concentration gradient with the highest concentration of […], where the values measured using Kinase HotSpot service (Reaction Biology Corporation) were marked with “*”.
All experimental methods were performed as provided in Kinase HotSpot Customer Protocol (http://www.reactionbiology.com//Kinase_Assay_Protocol).
In the table below, the following designations were used for the evaluation of enzyme inhibitory ability.

The target in assay [2] is T3, human GST-DYRK1A (full length) (Homo sapiens, UniProt Q13627).
T3 construct: purified human GST-DYRK1A (full length, Thermo scientifics) enzyme; GST; purchased Thermo scientifics
Put plainly: GST-DYRK1A enzyme inhibition, ADP-Glo kinase assay. The format is biochemical. The following applies: read-out: DYRK1 IC50. An outline of the steps:
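Full-length human GST-DYRK1A (10 ng) incubated with 10 uM ATP and specific substrate for 1 h at 25° C in 40 mM Tris-HCl pH 7.4, 20 mM MgCl2, 0.5 mg/mL BSA, 50 uM DTT. ADP formation read by ADP-Glo luminescence; IC50 (nM) versus solvent control, triplicate.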

The next assay concerns TNF-α. Put plainly: TNF-α secretion inhibition in LPS-treated THP-1 cells (ELISA). The format is cell-based. The following applies: Homo sapiens, compound 0.5 μM, LPS 500 ng/ml, 24 hours, read-out: THP-1/TNF-a (% inhib). The procedure: (§1) In order to evaluate the cytokine secretion inhibitory efficacy of mononuclear cells, THP-1 cells (ATCC, #TIB-202) as a human-derived monocyte cell line were cultured in RPMI-1640 (Hyclone, SH30027.01) media in which 10% fetal bovine serum (Hyclone, SH30084.03), 1% penicillin streptomycin (Welgene, LS202-02) and 50 μM 2-Mercaptoethanol (Gibco, #21985023) were contained. In the test, 1.5-2×10^5 cells/250 μl per each well were dispensed in a 48-well plate (SPL, #30048) and incubated in an incubator at 37° C. and 5% CO2 for 16 hours, and then the compounds were diluted in DMSO so that the final concentration was 0.5 μM. It was treated with Lipopolysaccharides (LPS) (sigma, #L6529) […]. After treatment with the compound, the LPS was treated so that the final concentration was 500 ng/ml, and then the cell culture fluid was collected after culturing for 24 hours, and the degrees of the cytokines IL-6 (R&D system, #D6050) and TNF-α (R&D system, #DTA00D) contained in the culture fluid were collected using each ELISA kit. After performing the experiment according to the manufacturer's instructions, the absorbance at 450 nm was measured and analyzed using a microplate reader.

The subject of the next assay is MDA-MB-231 cell line. In words: MDA-MB-231 cancer cell proliferation inhibition (Cell Titer-Glo). Type of assay: cell-based. The following applies: Homo sapiens, MDA-MB-231 triple-negative breast cancer cell line, 72 hours. An outline of the steps:
(§2)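 GI50 comes from CellTiter-Glo luminescence, read 10 min after reagent addition at RT, following 72 h compound treatment. Eleven concentrations were used (⅓ steps, highest 10 μM final) on 2000 cells/well. MDA-MB-231 and MDA-MB-468 were grown in DMEM, SHP-77 in RPMI.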

For the next assay, the target named is LRRK2 (Homo sapiens, UniProt Q5S007). Put plainly: LRRK2 enzyme inhibition, ADP-Glo kinase assay. The format is biochemical. On the set-up: purchased Invitrogen PR8604B. The essentials:
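Purified human LRRK2 (25 ng) in 40 mM Tris-HCl pH7.4, 20 mM MgCl2, 0.5 mg/ml BSA, 50 μM DTT with 10 μM ATP and substrate ([…]), 2 h at 25° C. Final compound 50 to 0.000001024 μM, 12-point dilution. ADP-Glo luminescence vs solvent control; IC50 (nM).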

The test system of the next assay is IL-6. In words: IL-6 secretion inhibition in LPS-treated THP-1 cells (ELISA). Type of assay: cell-based. The following applies: Homo sapiens, compound 0.5 μM, LPS 500 ng/ml, 24 hours, read-out: THP1/IL6 (% inhib). The procedure: as §1
Another assay addresses LRRK2 (G2019S) (Homo sapiens, UniProt Q5S007, G2019S). In words: LRRK2 G2019S enzyme inhibition, ADP-Glo kinase assay. The format is biochemical. On the set-up: purchased SignalChem L10-12GG. The essentials: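 Purified human LRRK2 G2019S (16 ng) with 25 μM ATP and 0.2 μg substrate, 2 h at 25° C in 40 mM Tris-HCl pH 7.4, 20 mM MgCl2, 0.5 mg/ml BSA, 50 μM DTT; compound at 12 final concentrations from 50 μM downward. ADP-Glo luminescence versus solvent control gave IC50 (nM).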

Another assay deals with SHP-77. Put plainly: SHP-77 cancer cell proliferation inhibition (Cell Titer-Glo). As to conditions: Homo sapiens, SHP77, SHP-77 small cell lung cancer cell line, 72 hours. Type of assay: cell-based. The essentials:
as §2

A further assay concerns human DYRK1A and Tau. Put plainly: Tau phosphorylation inhibition, ClariCELL Kinase Cell-Based Assay (Carnabio). An outline of the steps: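 HEK293 cells transiently expressing human DYRK1A and Tau were exposed to compound, then lysed. Released Tau was captured on plate and its phosphorylation quantified by ELISA with a phospho-Tau-specific antibody.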

Sequence of LRRK2 (Q5S007 970-2527 limits assumed): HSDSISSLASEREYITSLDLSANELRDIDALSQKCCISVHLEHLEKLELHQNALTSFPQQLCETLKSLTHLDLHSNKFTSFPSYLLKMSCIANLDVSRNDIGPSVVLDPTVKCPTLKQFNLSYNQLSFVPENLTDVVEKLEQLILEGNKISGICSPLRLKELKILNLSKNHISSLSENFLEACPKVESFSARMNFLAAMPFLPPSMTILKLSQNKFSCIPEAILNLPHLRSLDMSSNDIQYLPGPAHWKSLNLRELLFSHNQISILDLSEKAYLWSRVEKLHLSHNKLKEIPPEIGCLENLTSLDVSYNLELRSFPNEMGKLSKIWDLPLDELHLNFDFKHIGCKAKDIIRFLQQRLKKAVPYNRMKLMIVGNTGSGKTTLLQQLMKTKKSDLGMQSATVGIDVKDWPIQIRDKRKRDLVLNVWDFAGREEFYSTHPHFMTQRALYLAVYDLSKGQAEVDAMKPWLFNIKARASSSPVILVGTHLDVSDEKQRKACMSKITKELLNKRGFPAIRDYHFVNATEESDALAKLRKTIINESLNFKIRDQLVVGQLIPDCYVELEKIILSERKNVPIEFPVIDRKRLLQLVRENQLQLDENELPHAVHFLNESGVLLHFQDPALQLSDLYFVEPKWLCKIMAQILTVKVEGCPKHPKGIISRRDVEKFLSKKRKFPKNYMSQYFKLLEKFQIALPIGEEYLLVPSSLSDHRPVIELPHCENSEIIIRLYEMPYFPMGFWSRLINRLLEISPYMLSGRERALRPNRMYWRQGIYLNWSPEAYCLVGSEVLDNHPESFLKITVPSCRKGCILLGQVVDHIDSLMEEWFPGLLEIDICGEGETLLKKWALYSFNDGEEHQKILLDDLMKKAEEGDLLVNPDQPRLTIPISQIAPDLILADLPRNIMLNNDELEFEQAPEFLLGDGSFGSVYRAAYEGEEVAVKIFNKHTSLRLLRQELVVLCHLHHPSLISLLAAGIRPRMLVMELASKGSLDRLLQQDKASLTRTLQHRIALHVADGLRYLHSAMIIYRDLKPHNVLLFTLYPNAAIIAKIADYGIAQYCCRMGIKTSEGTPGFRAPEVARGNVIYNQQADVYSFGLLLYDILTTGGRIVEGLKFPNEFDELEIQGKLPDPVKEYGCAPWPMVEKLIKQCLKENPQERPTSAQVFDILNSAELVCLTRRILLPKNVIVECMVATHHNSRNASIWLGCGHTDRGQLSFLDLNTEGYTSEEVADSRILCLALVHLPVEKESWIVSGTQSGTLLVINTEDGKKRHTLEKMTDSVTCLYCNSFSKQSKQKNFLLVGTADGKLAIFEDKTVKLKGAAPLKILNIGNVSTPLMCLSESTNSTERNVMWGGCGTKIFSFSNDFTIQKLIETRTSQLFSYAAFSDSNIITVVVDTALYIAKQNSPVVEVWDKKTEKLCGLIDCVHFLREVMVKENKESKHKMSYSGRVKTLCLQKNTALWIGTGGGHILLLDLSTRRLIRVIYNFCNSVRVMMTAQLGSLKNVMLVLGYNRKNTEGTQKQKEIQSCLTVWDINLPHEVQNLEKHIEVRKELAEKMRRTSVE
Sequence of LRRK2 (G2019S) (Q5S007 970-2527 G2019S limits assumed): as the sequence (Q5S007 970-2527 limits assumed) above, with G1050S counted along it
T1 sequence (P49759 129-484 limits assumed): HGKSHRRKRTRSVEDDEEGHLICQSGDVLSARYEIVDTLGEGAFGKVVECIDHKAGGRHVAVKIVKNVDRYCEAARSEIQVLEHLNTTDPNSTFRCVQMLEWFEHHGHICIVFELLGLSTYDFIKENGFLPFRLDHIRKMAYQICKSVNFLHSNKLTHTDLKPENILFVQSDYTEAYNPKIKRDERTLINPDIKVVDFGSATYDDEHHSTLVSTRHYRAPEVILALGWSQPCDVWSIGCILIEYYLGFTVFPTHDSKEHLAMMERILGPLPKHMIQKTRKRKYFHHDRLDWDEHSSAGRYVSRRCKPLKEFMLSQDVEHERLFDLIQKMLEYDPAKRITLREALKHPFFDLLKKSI

Turning to `COc1cc(P(C)(C)=O)ccc1Nc1cc(C2CC2)c2c(C(F)(F)F)c[nH]c2n1` [Example 219, (4-((4-cyclopropyl-3-(trifluoromethyl)-1H-pyrrolo[2,3-b]pyridin-6-yl)amino)-3-methoxyphenyl) dimethylphosphine oxide], the IC50 was 0.301 to 1 µM against human GST-CLK1 (129-end) and under 0.1 µM in assay [1].
Regarding `CNc1cc(Nc2ccc(P3(=O)CCN(C4COC4)CC3)cc2OC)nc2[nH]cc(C(F)(F)F)c12` [Example 212, 4-(3-methoxy-4-((4-(methylamino)-3-(trifluoromethyl)-1H-pyrrolo[2,3-b]pyridin-6-yl)amino)phenyl)-1-(oxetan-3-yl)-1,4-azaphosphinane 4-oxide], the IC50 (in assay [2]; on human GST-CLK1 (129-end); at LRRK2) was under 0.1 µM in each case. Further, the inhibition at 0.5 µM in the assay on TNF-α was found to be 2.7%; in the assay with IL-6 it was 29.1%. This compound also registered a GI50 in the assay on MDA-MB-231 cell line of 0.301 to 1 µM.
As to `COCCNc1cc(Nc2ccc(S(=O)(=O)N3CCC(N4CCOCC4)CC3)cc2OC)nc2[nH]cc(C#N)c12` [Example 140, 6-((2-methoxy-4-((4-morpholinopiperidin-1-yl)sulfonyl)phenyl)amino)-4-((2-methoxyethyl)amino)-1H-pyrrolo[2,3-b]pyridine-3-carbonitrile], the IC50 (at human GST-CLK1 (129-end); against LRRK2 (G2019S); at LRRK2; in assay [1]) was under 0.1 µM throughout. Also, the results for the GI50 with MDA-MB-231 cell line and in the assay on SHP-77 were under 0.05 µM and 0.051 to 0.1 µM, respectively.
`COc1cc(P2(=O)CCN(C3COC3)CC2)ccc1Nc1cc(C2CC2)c2c(C(F)(F)F)c[nH]c2n1` [Example 47, 4-(4-((4-cyclopropyl-3-(trifluoromethyl)-1H-pyrrolo[2,3-b]pyridin-6-yl)amino)-3-methoxyphenyl)-1-(oxetan-3-yl)-1,4-azaphosphinane 4-oxide]: the IC50 against human GST-CLK1 (129-end) was under 0.1 µM; against LRRK2, 0.101 to 0.3 µM; in assay [1], under 0.1 µM. The compound further returned a GI50 in the assay with MDA-MB-231 cell line of 0.301 to 1 µM. In the assay with human DYRK1A and Tau, this compound gave an inhibition at 0.25 µM of 3.7%. This compound also displayed an inhibition at 0.5 µM in the assay on human DYRK1A and Tau of 15%. Further, the inhibition at 1 µM in the assay with human DYRK1A and Tau turned out to be 22.4%.
Take `COc1cc(S(C)(=O)=O)ccc1Nc1cc(C2CC2)c2c(C(F)(F)F)c[nH]c2n1` [Example 224, 4-cyclopropyl-N-(2-methoxy-4-(methylsulfonyl)phenyl)-3-(trifluoromethyl)-1H-pyrrolo[2,3-b]pyridin-6-amine]: the IC50 is 0.301 to 1 µM at human GST-CLK1 (129-end), 0.301 to 1 µM against LRRK2 (G2019S), 0.301 to 1 µM against LRRK2 and under 0.1 µM in assay [1].
`CCNc1cc(Nc2ccc(C(=O)N3CCC(N(C)C)CC3)c3c2OCC3)nc2[nH]cc(C(F)(F)F)c12` [Example 249, (4-(dimethylamino)piperidin-1-yl)(7-((4-(ethylamino)-3-(trifluoromethyl)-1H-pyrrolo[2,3-b]pyridin-6-yl)amino)-2,3-dihydrobenzofuran-4-yl)methanone]: the IC50 (in assay [2]; at human GST-CLK1 (129-end); against LRRK2 (G2019S)) was under 0.1 µM in each case. Also, the inhibition at 0.5 µM in the assay with TNF-α was 10.1%; with human DYRK1A and Tau, 76.9%; in the assay on IL-6 it was 60.3%. The inhibition at 0.25 µM in the assay on human DYRK1A and Tau is 62.4%. In addition, the inhibition at 1 µM with human DYRK1A and Tau came out at 82.9%.
Take `COc1cc(P2(=O)CCN(C3CCOCC3)CC2)ccc1Nc1cc(C2CC2)c2c(C(F)(F)F)c[nH]c2n1` [Example 102, 4-(4-((4-cyclopropyl-3-(trifluoromethyl)-1H-pyrrolo[2,3-b]pyridin-6-yl)amino)-3-methoxyphenyl)-1-(tetrahydro-2H-pyran-4-yl)-1,4-azaphosphinane 4-oxide]: the values for the IC50 (against human GST-CLK1 (129-end); in assay [1]) were 0.301 to 1 µM and under 0.1 µM, respectively.
